SMILES strings stand for the structures.

13 compounds from US20240101510A1, “APYRASE INHIBITORS” (Texas Crop Science, priority 2022, published 2024) can be followed below.

Assay [1] has as its system Botrytis cinerea on tomatoes. The experiment in a line: Greenhouse crop test in combination with commercial fungicide. It is filed as in vivo. Conditions: for control of Botrytis by Amistar in combination with test compound: Amistar 0.03 L/ha; for activity against Botrytis of Balaya in combination with test compound: Balaya 0.0015 L/ha, compared to Balaya alone; for control of Botrytis by Proline in combination with test compound: Proline 0.00075 L/ha, compared to Proline alone. The protocol: (§1) Method 3: Greenhouse Crop Tests
(§2) In this method, exemplary compounds were evaluated for their ability to control Zymoseptoria tritici on wheat, Botrytis cinerea on tomatoes, Asian Soya Rust (Phakopsora pachyrhizi) on soybean, and Brown Rust (Puccinia recondita) on wheat, in a controlled greenhouse environment in combination with one of four fungicides, Amistar, Imtrex, Proline or Balaya. In these studies, soybean cultivar Siverka, tomato (Money maker) and wheat plants (JB Diego) were used. Seeds were sown in 9 cm diameter pots to a depth of 1 to 2 cm using Petersfield potting compost (75% medium grade peat, 12% screened sterilized loam, 3% medium grade vermiculite, 10% grit (5 mm screened, lime free), 1.5 kg PG mix per m3, lime to pH5.5-6.0 and wetting agent (Vitax Ultrawet 200 ml per m3) and germinated/grown at 23° C. under a 16 h day/8 h night light regime. Plants were treated two to three weeks after sowing when they were at the BBCH 11 growth stage (first pair of true leaves (unifoliate) unfolded. A track sprayer was used to treat the plants with the mixture of commercial fungicide and test compound using a water volume of 200 L/ha. Plants were inoculated with the appropriate fungi (pathogen) 24 hours after treatment. Fungal pathogens used were Botrytis cinerea (Grey mold on tomato plants), Zymoseptoria tritici (Septoria leaf blotch on wheat plants), Puccinia triticina (Brown rust on wheat plants) and Phakopsora pachyrhyzi (Asian soy rust on soybean plants). Four replicates were used for each combination of fungicide, pathogen and test compound. Each plant was evaluated once the disease symptoms were fully expressed between seven to twenty days (depending on the pathogen) for % control of the disease. Appropriate controls were used for all experiments, including an ‘inoculation check’ wherein plants were inoculated with their specific pathogen to assess disease levels. Also, each commercial fungicide was tested on its own as a part of each treatment, this being benchmark against which the experimental compounds were evaluated. […] That is, the present compounds, although not fungicidal by themselves, enhance the activity of fungicides.
(§3) In these studies the fungicide was applied at the following rates

Assay [2] concerns apyrase. Kind of assay: In vitro apyrase assay (screen for apyrase inhibitors, phosphate release read at 630 nm). The class given is biochemical. Conditions: inhibitor conc at 1 mM; 1 hr at room temperature; rounded average of two assay results. The protocol:
Method 1: In Vitro Apyrase Assay: Apyrase inhibitors useful as enhancers of pesticidal activity are assessed using an in vitro assay. The method of Windsor, Bio Techniques 33:1024-1030 (November 2002) was used as follows: Screen for Apyrase Inhibitors - 96 well plates were used for the assay: (Greiner bio-one: REF-655901-96 well, PS, F-bottom, Clear, Non-binding) Buffers: • Reaction Buffer: 60 mM Hepes; 3 mM MgCl2, 3 mM CaCl2 and 3 mM ATP (pH 6.5) • Development Buffer A: 2% aqueous ammonium molybdate • Development Buffer B: 11% ascorbic acid in 37.5% TCA in water • Stop buffer C: 2% trisodium citrate in 2% acetic acid solution in water • Add 100 μl of reaction buffer to each well. • Add […] (control) or inhibitor/compound or compounds such as […] or orthovanadate to each well. […] A blank cell indicates either <10% observed inhibition or a large difference between repetitions. In certain examples, the lack of observed inhibition is due to a lack of solubility of the compound under assay conditions, rather than a lack of apyrase inhibitory activity. Roux compound 15 inhibited apyrase in this assay at about 60%.

The subject of assay [3] is Zymoseptoria tritici with a reduced susceptibility to SDHI fungicides. The experiment in a line: In vitro assessment of combination activity with fungicides on agar.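 Also: scored as inactive or active or highly active.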 It is filed as cell-based. To be noted: fungicide at a rate just below that giving any control; visual assessment of % control. The protocol: (§4) Method 2: In Vitro Assessment of Combination Activity
(§5) Selected compounds were assessed in combination with fungicides against a range of commercially important plant pathogenic fungi.
(§6) The test was conducted as follows. A fungicide was applied to a fungal plant pathogen at a rate slightly below that at which it gave any control, in combination with a suitable dose of the test compound. The test compound was recorded as active if control of the pathogen was observed.
(§7) In more detail, the test was conducted as follows. For each combination of fungicide, pathogen and test compound, the following wells were used. Well 1 contained a fungal pathogen growing on agar, and a fungicide at a rate just below that at which it gave any control of the pathogen. Well 2 was the same as Well 1, except that the test compound was also added at Rate 1. Well 3 was the same as Well 2, except that the test compound was added at Rate 2, where Rate 2 was higher than Rate 1. Finally, as a benchmark, Well 4 was the same as Well 1, except that it contained the fungicide at a higher rate, at which it gave partial control of the pathogen. Each of the Wells 1 to 4 were run in duplicate, giving a total of 8 wells for each combination of fungicide, pathogen and test compound. For each well, after a suitable period of incubation, a visual assessment of the % control of the pathogen by the fungicide was made.
(§8) The following fungicides were used in this assay: azoxystrobin, fluxapyroxad, and desthio prothioconazole. The following fungal pathogens were used in this assay. First, a strain of Zymoseptoria tritici with a reduced susceptibility to strobilurin fungicides; second a strain of Zymoseptoria tritici with a reduced susceptibility to SDHI fungicides (i.e., those that inhibit succinate dehydrogenase); and third, Microdochium nivale.

Assay [4] relates to Microdochium nivale. Described as above. It is filed as cell-based. Conditions: fungicide at a rate just below that giving any control; visual assessment of % control. The protocol: as §4, §5, §6, §7, §8
The subject of assay [5] is Zymoseptoria tritici with a reduced susceptibility to strobilurin fungicides. Described as above. The class given is cell-based. To be noted: fungicide at a rate just below that giving any control; visual assessment of % control. The protocol:
as §4, §5, §6, §7, §8

Assay [6] deals with Zymoseptoria tritici on wheat. The experiment in a line: Greenhouse crop test in combination with commercial fungicide. The class given is in vivo. Conditions: test compound at 20 ppm. The protocol:
as §1, §2, §3

[7] abbreviates: test compound rate not printed (same rate for both, the higher rate), compared to Amistar alone.
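For activity in combination with azoxystrobin in this document: scored as inactive or active or highly active.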
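For activity in combination with desthio prothioconazole in this document: scored as inactive or active or highly active.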
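For activity in combination with fluxapyroxad in this document: scored as inactive or active or highly active.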

Regarding `C/C(=N\NC(=O)c1cccc(C)c1)c1ccc2ccccc2c1` [Roux compound 15, reference compound], in assay [1] (setting [7]), the “control of Botrytis by Amistar in combination with test compound” value is “substantially higher than with Amistar alone”. In assay [1] (test compound at 15 ppm), the “activity against Botrytis of Balaya in combination with test compound” value is listed as “no more active against Botrytis than Balaya alone”. Moreover, the “control of Botrytis by Proline in combination with test compound” value in assay [1] (test compound at 30 ppm) is “notably higher than with Proline alone”. In addition, the “% Inhibition of Apyrase” value in assay [2] is recorded as “about 60%”. In addition, in assay [3], the “activity in combination with azoxystrobin” value (“activity … with azoxystrobin” for short) was “no activity”, the “activity in combination with desthio prothioconazole” value is on record as “no activity” and the “activity in combination with fluxapyroxad” value (shortened to “activity … with fluxapyroxad”) is “no activity”. For the same compound, in assay [4], the “activity … with azoxystrobin” value is given as “no activity”, the “activity in combination with desthio prothioconazole” value is listed as “no activity” and the “activity … with fluxapyroxad” value was “no activity”. Further, in assay [5], the “activity … with azoxystrobin” value is listed as “no activity”, the “activity in combination with desthio prothioconazole” value was “no activity” and the “activity … with fluxapyroxad” value is given as “no activity”.

Consider `C/C(=N\NC(=O)c1cccc(C)c1)c1cnc2ccccc2c1` [I-215, (E)-3-methyl-N′-(1-(quinolin-3-yl)ethylidene)benzohydrazide], for which, in assay [2], the “% Inhibition of Apyrase” value is given as 46%. Moreover, the “activity … with fluxapyroxad” value in assay [4] is on record as “significant activity”.

With `C/C(=N\NC(=O)c1cccc(F)c1)c1ccccn1` [I-4, (E)-3-fluoro-N′-(1-(pyridin-2-yl)ethylidene)benzohydrazide], the “control of Botrytis by Amistar in combination with test compound” value is given as “much higher levels of control” in assay [1] (test compound at 15 ppm, compared to Amistar with Roux Compound 15 at 15 ppm) and “substantially higher than with Amistar alone” in assay [1] (setting [7]). Also, the “activity against Botrytis of Balaya in combination with test compound” value in assay [1] (test compound at 15 ppm) is recorded as “significantly more active”. Further, the “control of Botrytis by Imtrex in combination with test compound” value in assay [1] (Imtrex 0.005 L/ha, test compound at 30 ppm, compared to Imtrex alone or with Roux Compound 15 at 30 ppm) is on record as “far superior control”. Further, in assay [1] (test compound at 30 ppm), the “control of Botrytis by Proline in combination with test compound” value was “notably higher than with Proline alone”. Also, the “% Inhibition of Apyrase” value in assay [2] came to 24%. Also, the “activity … with azoxystrobin” value in assay [3], in assay [4] and in assay [5] was “significant activity” in each case. Also, the “activity in combination with desthio prothioconazole” value in assay [3], in assay [4] and in assay [5] was “significant activity” each time. Besides, the “activity … with fluxapyroxad” value in assay [3], in assay [4] and in assay [5] was “significant activity” in each case.

For `CCCC/C=N/NC(=O)c1ccccc1` [I-9, (E)-N′-pentylidenebenzohydrazide], the “% Inhibition of Apyrase” value in assay [2] came out at 19%. In assay [3], the “activity in combination with desthio prothioconazole” value is “significant activity”. Moreover, the “activity … with azoxystrobin” value in assay [4] is given as “significant activity”.

Regarding `C/C(=N\NC(=O)c1cc(C)ncn1)c1ccc2ccccc2c1` [I-223, (E)-6-methyl-N′-(1-(naphthalen-2-yl)ethylidene)pyrimidine-4-carbohydrazide], the “control of Zymoseptoria tritici by Balaya in combination with test compound” value in assay [6] (Balaya 0.0015 L/ha, compared to Balaya alone or with Roux Compound 15 at 30 ppm) was “notable superior results”. The “control of Zymoseptoria tritici by Proline in combination with test compound” value in assay [6] (Proline 0.0075 L/ha, compared to Proline alone and with Roux Compound 15) is “notable superior results”. Further, the “% Inhibition of Apyrase” value in assay [2] worked out at 10%. In addition, the “activity … with fluxapyroxad” value in assay [4] is given as “significant activity”. In addition, the “activity in combination with desthio prothioconazole” value in assay [5] is given as “significant activity”.

For the compound `C/C(=N\NC(=O)c1cccc(C)c1)c1ccc(C)c(C)c1` [I-217, (E)-N′-(1-(3,4-dimethylphenyl)ethylidene)-3-methylbenzohydrazide], the “% Inhibition of Apyrase” value in assay [2] is on record as 44%.

As to `CCc1cccc(C(=O)N/N=C(\C)c2ccc3ccccc3c2)c1` [I-218, (E)-3-ethyl-N′-(1-(naphthalen-2-yl)ethylidene)benzohydrazide], the “% Inhibition of Apyrase” value in assay [2] was 42%.

`C/C(=N\NC(=O)c1nccc(C)n1)c1ccc2ccccc2c1` [I-225, (E)-4-methyl-N′-(1-(naphthalen-2-yl)ethylidene)pyrimidine-2-carbohydrazide]: in assay [2], the “% Inhibition of Apyrase” value is 6%.

Turning to `C/C(=N/NC(=O)c1ccc2nc[nH]c2c1)c1ccc2ccccc2c1` [I-21, (Z)-N′-(1-(naphthalen-2-yl)ethylidene)-1H-benzo[d]imidazole-6-carbohydrazide], the “% Inhibition of Apyrase” value in assay [2] worked out at 12%.

With `C/C(=N\NC(=O)c1cccc([N+](=O)[O-])c1)c1ccc2ccccc2c1` [I-29, (E)-N′-(1-(naphthalen-2-yl)ethylidene)-3-nitrobenzohydrazide], the “% Inhibition of Apyrase” value in assay [2] was determined as 10%.

On to `C/C(=N/NC(=O)c1ccccc1)C(=O)O` [I-17, (Z)-2-(2-benzoylhydrazineylidene)propanoic acid], for which the “% Inhibition of Apyrase” value in assay [2] is on record as 14%.

For `CCCCCC(=O)N/N=C(/C)c1ccc2ccccc2c1` [I-24, (Z)-N′-(1-(naphthalen-2-yl)ethylidene)hexanehydrazide], the “% Inhibition of Apyrase” value in assay [2] was found to be 11%.

Regarding `C/C(=N\NC(=O)c1ccc(-n2cnnn2)cc1)c1ccc2ccccc2c1` [I-8, (E)-N′-(1-(naphthalen-2-yl)ethylidene)-4-(1H-tetrazol-1-yl)benzohydrazide], in assay [2], the “% Inhibition of Apyrase” value came out at 19%.
